Earlier results in patent publication US20140271866A1, “TRANSDERMAL DRUG DELIVERY SYSTEM CONTAINING RIVASTIGMINE” (priority 2013, published 2014).

Settings: in vivo

In the case of `CCN(C)C(=O)Oc1cccc([C@H](C)N(C)C)c1` [Rivastigmine, rivastigmine], the half-life is given as “about 1.5 hours”.
